Measurements taken from ChEMBL document CHEMBL5329181, “Green synthesis and anti-biofilm activities of 3,5-disubstituted isoxazoline/isoxazole-linked secondary sulfonamide derivatives on Pseudomonas aeruginosa” (2023).
Active and inactive are the calls of the source. The rule behind the calls is not given here.

What follows are molecules tested on Pseudomonas aeruginosa (assay: Destabilization of mature biofilms in Pseudomonas aeruginosa assessed as biofilm dispersion at 200 uM incubated for 24 hrs by crystal violet staining based assay relative to control).
Assay type: functional

| Compound | Activity |
| --- | --- |
| NNC(=O)c1ccccc1S(=O)(=O)NCC1CC(c2ccc(Cl)cc2Cl)=NO1 (stereo not drawn) | 50% |
| NNC(=O)c1ccccc1S(=O)(=O)NCc1cc(-c2ccc(Cl)cc2Cl)no1 | 50% |
| CN[C@@H]1[C@@H](O[C@H]2O[C@H](CO)[C@@H](N)[C@H](O)[C@H]2O)O[C@H]2C[C@@H](N)[C@@H](O[C@H]3[C@H](O)[C@@H](O)[C@H](N)C[C@@H]3N)O[C@@H]2[C@@H]1O | 50% |
| NNC(=O)c1ccccc1S(=O)(=O)NCC1CC(c2ccc(Cl)cc2)=NO1 (stereo not drawn) | inactive |
| COc1ccc(C2=NOC(CNS(=O)(=O)c3ccccc3C(=O)NN)C2)cc1 (stereo not drawn) | 50% |
| C=CCNS(=O)(=O)c1ccccc1C(=O)NN | 30% |
| NNC(=O)c1ccccc1S(=O)(=O)NCC1CC(c2ccccc2Cl)=NO1 (stereo not drawn) | inactive |

The molecules below were run on Pseudomonas aeruginosa (assay: Antibiofilm activity against Pseudomonas aeruginosa assessed as inhibition of biofilm formation at 200 uM incubated for 24 hrs by crystal violet staining based assay).
Assay type: functional, organism-based

| Compound | Activity |
| --- | --- |
| NNC(=O)c1ccccc1S(=O)(=O)NCC1CC(c2ccc(Br)cc2)=NO1 (stereo not drawn) | inactive |
| NNC(=O)c1ccccc1S(=O)(=O)NCC1CC(c2ccc(Cl)cc2Cl)=NO1 (stereo not drawn) | inactive |
| NNC(=O)c1ccccc1S(=O)(=O)NCc1cc(-c2ccc(Cl)cc2Cl)no1 | inactive |
| Cc1ccc(C2=NOC(CNS(=O)(=O)c3ccccc3C(=O)NN)C2)cc1 (stereo not drawn) | inactive |
| NNC(=O)c1ccccc1S(=O)(=O)NCC1CC(c2ccc(Cl)cc2)=NO1 (stereo not drawn) | inactive |
| COc1ccc(C2=NOC(CNS(=O)(=O)c3ccccc3C(=O)NN)C2)cc1 (stereo not drawn) | inactive |
| NNC(=O)c1ccccc1S(=O)(=O)NCC1CC(c2cccc([N+](=O)[O-])c2)=NO1 (stereo not drawn) | inactive |
| NNC(=O)c1ccccc1S(=O)(=O)NCc1cc(-c2ccc(Br)cc2)no1 | inactive |
| NNC(=O)c1ccccc1S(=O)(=O)NCC1CC(c2ccc(Cl)c(Cl)c2)=NO1 (stereo not drawn) | inactive |
| C=CCNS(=O)(=O)c1ccccc1C(=O)NN | inactive |
| NNC(=O)c1ccccc1S(=O)(=O)NCC1CC(c2ccccc2)=NO1 (stereo not drawn) | inactive |
| NNC(=O)c1ccccc1S(=O)(=O)NCC1CC(c2ccccc2Cl)=NO1 (stereo not drawn) | inactive |
| C#CCNS(=O)(=O)c1ccccc1C(=O)NN | inactive |

The molecules below were run on Pseudomonas aeruginosa (assay: Antibacterial activity against Pseudomonas aeruginosa H103 assessed as reduction in bacterial growth at 200 uM measured every 15 min for 24 hrs by optical density based analysis).
Assay type: functional, organism-based

| Compound | Activity |
| --- | --- |
| NNC(=O)c1ccccc1S(=O)(=O)NCC1CC(c2ccc(Br)cc2)=NO1 (stereo not drawn) | inactive |
| NNC(=O)c1ccccc1S(=O)(=O)NCC1CC(c2ccc(Cl)cc2Cl)=NO1 (stereo not drawn) | inactive |
| NNC(=O)c1ccccc1S(=O)(=O)NCc1cc(-c2ccc(Cl)cc2Cl)no1 | inactive |
| Cc1ccc(C2=NOC(CNS(=O)(=O)c3ccccc3C(=O)NN)C2)cc1 (stereo not drawn) | inactive |
| NNC(=O)c1ccccc1S(=O)(=O)NCC1CC(c2ccc(Cl)cc2)=NO1 (stereo not drawn) | inactive |
| COc1ccc(C2=NOC(CNS(=O)(=O)c3ccccc3C(=O)NN)C2)cc1 (stereo not drawn) | inactive |
| NNC(=O)c1ccccc1S(=O)(=O)NCC1CC(c2cccc([N+](=O)[O-])c2)=NO1 (stereo not drawn) | inactive |
| NNC(=O)c1ccccc1S(=O)(=O)NCc1cc(-c2ccc(Br)cc2)no1 | inactive |
| NNC(=O)c1ccccc1S(=O)(=O)NCC1CC(c2ccc(Cl)c(Cl)c2)=NO1 (stereo not drawn) | inactive |
| C=CCNS(=O)(=O)c1ccccc1C(=O)NN | inactive |
| NNC(=O)c1ccccc1S(=O)(=O)NCC1CC(c2ccccc2)=NO1 (stereo not drawn) | inactive |
| NNC(=O)c1ccccc1S(=O)(=O)NCC1CC(c2ccccc2Cl)=NO1 (stereo not drawn) | inactive |
| C#CCNS(=O)(=O)c1ccccc1C(=O)NN | inactive |
